Test results reported in patent US12390435B2, “Electrophiles and electrophile pro-drugs as RAD51 inhibitors” (University of Pittsburgh—Of the Commonwealth System of …, priority 2018, dated 2025).
“Also recorded” adds a separate entry of the source.

Legend:
MDA-MB-231 cells [1] = experiment: CellTiter-Glo relative growth (luminescent ATP); type: cell-based; details: for EC50 for growth inhibition, compared between compounds: ATP Celltiter Glo proliferation assay, n=3
Description: HEK 293T, MDA-MB-231, MDA-MB-468, Hs578T and BT-549 cells (American Type Culture Collection) were cultured at 37° C. with 5% CO2 in Dulbecco's modified Eagle's medium containing (DMEM) (Gibco) supplemented with 5% FBS (HyClone), 100 units/ml penicillin, […] streptomycin (Gibco), non-essential amino acids (Gibco) and 2 mM 1-glutamine (Gibco). Doxorubicin (Selleckchem), cisplatin (Sigma) or olaparib (Selleckchem) were dissolved in DMSO or DMF (cisplatin). […] Pure NO2-OA was diluted in DMSO and added to cells after solvation in assay media. Relative cell numbers were compared by measuring the luminescent signal generated by ATP using the CellTiter-Glo (Promega) assay. Cells were plated in a 96-well plate at 5,000 (MDA-MB-231) or 6,600 (BT549 or Hs578T) cells per well.
Data represent the mean±SEM from 3 independent experiments unless otherwise noted. A p value<0.05 was considered statistically significant. Non-linear curves were generated in GraphPad Prism 7.0 (GraphPad Software, La Jolla, CA, USA) for statistical analysis. EC50 values and standard error were calculated from three independent experiments utilizing a non-linear dose response variable slope model. Significance was tested by one-way ANOVA for multiple groups with Tukey posttest or by t-test when groups were less than three. RAD51 foci number was analyzed with ImageJ. Nuclear boundaries were individually identified in more than 50 cells per treatment group in three independent experiments.
The growth of BT-549 cells was not affected. […] MDA-MB-231 cells were plated in a 96 well plate and treated with talazoparib (0.01-75 μM) plus OA-NO2 or NDA-NO2 (0.2-12 μM) daily for 3 days. Growth inhibition (relative cell numbers) of MDA-MB-231 cells was determined by luminescent detection of ATP (CellTiter-Glo) (FIG. 1K).

MDA-MB 231 TNBC cells = experiment: Metabolism in MDA-MB-231 cells by HPLC-MSMS; type: in vitro ADME; details: for omega hydroxylation and carboxylation: 10 uM; for omega hydroxylation and carboxylation / cysteine adduct formation: cell media and cell homogenate
Description: FIG. 18. […] Growth inhibition was assessed using the ATP Celltiter Glo proliferation assay and compounds were used at different concentration to determine their EC50. CP-1 had the lowest EC50 followed by 7-NDA and 8-NDA. […] The different metabolic pathways of 7-NDA and 8-NDA have been characterized in MDA-MB-231 TNBC cells. MDA-MB 231 TNBC cells incorporate and metabolize 7-NDA and 8-NDA through beta oxidation (FIG. 19). Inactivation of the active 7-NDA and 8-NDA nitroalkene group is achieved through reduction to a nitroalkane (FIG. 20).
FIG. 19. […] Dinor 7-NDA corresponds to one beta-oxidation cycle while tetranor corresponds to two beta oxidation cycles. […] Formation of both Dinor and Tetranor 8-NDA are shown. Chromatograms correspond to the detection by HPLC-MSMS of the different compounds in negative ion mode using MRMs on a triple quadrupole mass spectrometer.
FIG. 20. […] Chromatograms correspond to the detection by HPLC-MSMS of the different compounds in negative ion mode using MRMs on a triple quadrupole mass spectrometer.
FIG. 21. […] Chromatograms correspond to the detection by HPLC-MSMS of the different using specific MRM transitions on a triple quadrupole mass spectrometer.
FIG. 22. […] Dicarboxylic acids of both 7-NDA and 8-NDA have been detected in cell media and cell homogenate from cell treated with 10 uM 7-NDA or 8-NDA. Chromatograms correspond to the detection by HPLC-MSMS of the different using specific MRM transitions on a triple quadrupole mass spectrometer.

IKKβ = experiment: TNFα-induced IKKβ phosphorylation, IκBα phosphorylation and degradation; type: cell-based
Description: All studies used two TNBC cell lines, MDA-MB-231 and MDA-MB-468. […] For IκBα degradation, cells were treated as described above and stimulated with 20 ng/mL TNFα for 10 min.
(§1) Western blotting was performed. 20-60 μg of total lysates per lane were loaded on 7%, 10%, or 12% SDS-PAGE and transferred onto nitrocellulose or polyvinylidene difluoride membranes (Bio-Rad). The membranes were probed with primary antibodies against caspase-3, multi-drug resistance protein-1 (MRP1), poly [ADP ribose] polymerase-1 (PARP-1), ubiquitin, RelA; cyclin D1, p21, caspase-9, MRP4, IKKβ, pIKKβ, IκBα, or pIκBα (Cell Signaling); caspase-8 (R&D Systems). Samples were normalized to β-actin (Sigma-Aldrich) or GAPDH (Trevigen).

MDA-MB-468 cells = experiment: Matrigel cell invasion assay; type: cell-based; details: NO2-OA/NO2-SA 5 μM, JSH-23 10 μM, TNFα 20 ng/mL, 24 hr
Description: Cells were then suspended in migration media and placed in the top well of invasion chambers (EMD Millipore). Chemoattractant (5% FBS) was placed in the lower chamber for 24 hr at 37° C. to attract invasive cells. Cells were then harvested and invasion rates were determined according to manufacturer's protocol. Three individual experiments were done, and statistical comparison among treatments was determined by one-way analysis of variance followed by Tukey post-test.

[2] = system: NF-κB transcriptional activity; experiment: NF-κB luciferase reporter; type: cell-based; details: MDA-MB-231 and MDA-MB-468 cells, 5 μM 2 hr then TNFα 20 ng/mL 4 hr
Description: Luciferase-chemiluminescence-based analysis of NF-κB transcriptional activity was performed. MDA-MB-231 and MDA-MB-468 cells (˜70% confluence) in 12-well plates were transiently transfected with a NF-κB-luciferase reporter plasmid (Stratagene, La Jolla, CA) with Lipofectamine 3000. […] Each transfection was performed in triplicate. Luciferase activity was measured using the Dual-luciferase assay kit (Promega). Relative light units (RLU) were measured using a 96-well plate luminometer, according to the manufacturer's instructions (Victor II, PerkinElmer Life Sciences). Protein concentration was determined using the BCA Assay (Thermo Fisher Scientific). Data represents the ratio of treated samples to controls in the context of mean RLU/protein content, +/−SD. Three individual experiments were done, and statistical significance was determined by Kruskal-Wallis test followed by Dunn's post-test with Bonferroni corrections for multiple comparisons.

[3] = system: MDA-MB-231 and MDA-MB-468 cells; experiment: FACS cell cycle analysis; type: cell-based; details: MCF-10A, MDA-MB-231 and MDA-MB-468 cells, 24 hr
Description: Adherent and nonadherent cells were collected, centrifuged at 2000×rpm for 10 min, washed with ice-cold phosphate-buffered saline, fixed with cold 70% ethanol at 4° C. for 30 mins, and stained with 50 μg/mL propidium iodide (Sigma-Aldrich). FACS analysis was performed at the University of Pittsburgh Department of Immunology Unified Flow Core Facility. Three individual experiments were done, and statistical comparisons among phases (G0/G1, S, and G2/M) were determined by one-way analysis of variance followed by Tukey post-test.

MDA-MB-231 cells [4] = experiment: Cell growth assay (FluoReporter dsDNA); type: cell-based; details: TNBC cell lines MDA-MB-231 and MDA-MB-468, 48 hr
Description: Cells were plated at a cell density of 5000 cells per well in 96-well plates. […] Cells were counted using the FluoReporter dsDNA quantitation kit (Molecular Probes) according to the manufacturer's instructions. Fluorescence was measured using a SpectraMax M2 plate reader (Molecular Devices). […] Three individual experiments were done (n=5/each), and statistical comparison between two cell lines across doses was determined by two-way analysis of variance followed by Tukey post-test.

[5] = system: RelA in MDA-MB-231 and MDA-MB-468 cells; experiment: RelA protein level and polyubiquitination; type: cell-based; details: 5 μM, 24 hr
Description: Lysates were clarified by centrifugation at 14,000×g for 10 min. Protein lysates (1 mg) were incubated with anti-RelA antibody and Protein G/A conjugated agarose beads (EMD Millipore, Bedford, MA) at 4° C., overnight. Immunoprecipitation fraction were obtained by centrifugation at 14,000×g for 1 min at RT and washed with lysis buffer three times. The immunoprecipitated RelA was resolved by 8% SDSPAGE gel, and transferred to nitrocellulose membrane (Bio-Rad) for immunoblotting probed with an anti-ubiquitin antibody (Santa Cruz Biotechnology). The blot was then stripped and probed with an anti-RelA antibody to assess amounts of RelA protein pull-down.
as §1

[6] = system: homologous recombination (DR-GFP, U2OS cells); experiment: DR-GFP HR reporter assay in U2OS cells; type: cell-based; details: FIG. 16B
Description: Measurements of NHEJ, HR, Alt-EJ and SSA assays were performed as previously described. HR activity was measured by counting GFP-positive cells by flow cytometry at the MWRI flow cytometry core using a BD LSRII (BD Biosciences). RAD51 overexpressing cells were generated by stable transfection of pLVX RAD51 IRES Neo and selection with geneticin (Invitrogen).
U2OS cells were prepared as above, but 5 h following compound treatment, cells were transferred into the Incucyte Zoom (Essen) live-cell imaging automated fluorescence microscope at 37° C. with 5% CO2. Cell confluence and green object count per mm2 were determined using Incucyte Zoom software. Green object count per field was normalized to cell confluency to correct for NO2—OA-induced effects on cell proliferation.
NO2-OA-dependent effects on HR DNA repair were further investigated by utilizing a DRGFP reporter assay. This analysis quantifies intracellular recombination of an integrated cDNA cassette of two tandem non-fluorescent GFP constructs following introduction of an I-SceI cleavage to the system by measuring the fluorescent GFP protein that is produced following successful recombination. […] A novel strategy was used to measure the kinetics of changes in HR in live cells by using automated fluorescence microscopy to track the emergence of GFP positive cells over time in monolayers, as opposed to making static measurements of detached cells using flow cytometry. […] This was indicated by an absence of changes in the number of GFP positive cells following I-SceI cleavage after 48 h by flow cytometric analysis or over 68 h by live-cell fluorescence microscopy (FIGS. 2C, 2D).

[7] = system: human high grade serous ovarian cancer cells; experiment: Cell growth/viability by luminescent ATP with PARP inhibitors; type: cell-based; details: with Olaparib or Talazoparib
Description: Cell growth/viability is determined from luminescent detection of cell ATP concentration.

`CCCCCCCCCCC/C=C(\CCCCCC(=O)O)[N+](=O)[O-]` [7-NDA, 7-NO2-nonadec-7-enoic acid] was tested, and the “EC50 for growth inhibition, compared between compounds” value (MDA-MB-231 cells [1]) was “more sensitive to 7-NDA and 8-NDA when compared to OA-NO2”, the “IC50 compared with NO2-OA” value (MDA-MB-231 cells [1]; FIG. 12) was “lower IC50 compared NO2-OA” and the “Combination index (CI), Chou-Talalay” value (MDA-MB-231 cells [1]; with talazoparib (0.01-75 μM), 0.2-12 μM, daily 3 days, CI<1 is synergistic) was “better combination indices; also recorded: better CI values compared to OA-NO2”. The “formation of active nitroalkene beta-oxidation metabolites (dinor, tetranor)” value (MDA-MB 231 TNBC cells) was “does not result in the formation of active, nitroalkene containing metabolites”, the “omega hydroxylation and carboxylation” value (MDA-MB 231 TNBC cells) was “omega hydroxylation and carboxylation” and the cysteine adduct formation (MDA-MB 231 TNBC cells) was “form cysteine adducts that are detected in cell media and cell homogenate”.

With `CCCCCCCCCCC/C(=C\CCCCCC(=O)O)[N+](=O)[O-]` [8-NDA, 8-NO2-nonadec-7-enoic acid] the “EC50 for growth inhibition, compared between compounds” value (MDA-MB-231 cells [1]) was “more sensitive to 7-NDA and 8-NDA when compared to OA-NO2”, the “formation of active nitroalkene beta-oxidation metabolites (dinor, tetranor)” value (MDA-MB 231 TNBC cells) was “result in the active (structures having the reactive nitroalkene moiety) beta-oxidation products” and the “omega hydroxylation and carboxylation” value (MDA-MB 231 TNBC cells) was “omega hydroxylation and carboxylation”. The cysteine adduct formation (MDA-MB 231 TNBC cells) was “form cysteine adducts that are detected in cell media and cell homogenate”.

For `Cc1ccc(S(=O)(=O)/C=C/C#N)cc1` [BAY11-7082, 3[(4-methylphenyl)sulfonyl]-(2E)-propenenitrile, reference compound], the “TNFα-induced IKKβ phosphorylation” value (IKKβ; NO2-OA 5 μM or BAY11-7082 10 μM 2 hr, TNFα 20 ng/mL 5 min) was “diminished”, the “degradation of IκBα following TNFα stimulation” value (IKKβ; TNFα 20 ng/mL, 10 min) was “inhibited the degradation of IκBβ” and the IκBα phosphorylation (IKKβ; with proteasome inhibitor MG-132 10 μM) was “decreased IκBβ phosphorylation”.

With `Cc1ccc(NCCCc2ccccc2)c(N)c1` [JSH-23, 4-Methyl-N1-(3-phenyl-propyl)-benzene-1,2-diamine] the TNFα-induced invasion (MDA-MB-468 cells) was “inhibition of MDA-MB-468 cell invasion”.

For `CCCCCCCCC(CCCCCCCCC(=O)O)[N+](=O)[O-]` (stereo not drawn) [NO2—SA, 10-nitro-octadecanoic acid, reference compound], the “NF-κB-dependent transcription of luciferase” value [2] was “no effect”, the “cell cycle populations and regulatory proteins” value [3] was “did not affect cell cycle populations” and the TNBC cell growth (MDA-MB-231 cells [4]) was “did not affect TNBC cell growth”. The RelA protein abundance [5] was “no effect” and the TNFα-induced invasion (MDA-MB-468 cells) was “marginal effects”.

In the case of `CCCCCCCCC=CCCCCCCCC(=O)O` [OA, octadec-9-enoic acid, reference compound], the “NF-κB-dependent transcription of luciferase” value [2] was “no effect” and the “EC50 for growth inhibition, compared between compounds” value (MDA-MB-231 cells [1]) was “did not induce any growth inhibition”.

“methyl-ethyl-4-nitro-oct-4-enedioate [CP-1]” was tested, and the “inhibition of homologous recombination” value [6] was “inhibition of homologous recombination”, the “concentration of PARP inhibitor needed for 50% tumor cell killing” value [7] was “lowers the concentration of the PARP inhibitors” and the “EC50 for growth inhibition, compared between compounds” value (MDA-MB-231 cells [1]) was “lower EC50 than OA-NO2; also recorded: lowest EC50”.
